Data set [1] addresses T1, SARS-CoV-2 M^pro (Severe acute respiratory syndrome coronavirus 2, UniProt P0DTD1). The data set can be described thus: biochemical. The class given is biochemical. Particulars: for IC50: 15-min pre-incubation, two independent assays in triplicate (n = 6).
In the next data set the target is SARS-CoV M^pro (Severe acute respiratory syndrome coronavirus, UniProt P0C6X7). Put plainly: biochemical. The data set is classed as biochemical. The following applies: for IC50: n = 6.
A short description of data set [2]: in vitro. The following applies: green monkey.
Data set [3] has as its target T1, SARS-CoV-2 M^pro. The class given is biochemical. Particulars: pre-incubated 30 min at 10-fold IC50 with 100× enzyme, diluted 100-fold to 0.1-fold IC50; monitored 2 h.
In another data set the target is SARS-CoV-2 PL^pro (Severe acute respiratory syndrome coronavirus 2, UniProt P0DTD1). The data set can be described thus: biochemical. The following applies: 15-min pre-incubation, one assay in triplicate (n = 3), mean ± SE.
Data set [4] in a line: in vitro. The following applies: mouse.
Data set [5] deals with T1, SARS-CoV-2 M^pro. Put plainly: biochemical. The following applies: for fold decrease in IC50 with 15-min pre-incubation vs without: SARS-CoV-2 M^pro, 15-min vs 0-min pre-incubation. The data set is classed as biochemical.
Data set [6] addresses T2, human cathepsin L (hCatL) (Homo sapiens, UniProt P07711).
T2 construct: purchased R&D Systems 952-CY-010
The data set can be described thus: hCatL inhibition assay (Z-Phe-Arg-AMC). The data set is classed as biochemical. The following applies: 15-min pre-incubation; pH 5.5; n = 6.

The target of the next data set is MERS-CoV M^pro (Middle East respiratory syndrome-related coronavirus, UniProt K9N7C7). The data set can be described thus: biochemical. The data set is classed as biochemical. The following applies: for IC50: n = 6.
Chain of MERS-CoV M^pro (K9N7C7 3248-3553 limits assumed): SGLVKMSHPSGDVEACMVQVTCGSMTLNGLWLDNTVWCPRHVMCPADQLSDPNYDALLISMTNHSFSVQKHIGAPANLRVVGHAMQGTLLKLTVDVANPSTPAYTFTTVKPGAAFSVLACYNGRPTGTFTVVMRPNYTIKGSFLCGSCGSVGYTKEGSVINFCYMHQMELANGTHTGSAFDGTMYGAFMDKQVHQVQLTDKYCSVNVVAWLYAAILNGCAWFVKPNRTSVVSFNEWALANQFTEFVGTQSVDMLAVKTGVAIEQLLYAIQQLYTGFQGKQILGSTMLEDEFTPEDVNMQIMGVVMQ
For data set [7], the target named is T1, SARS-CoV-2 M^pro. The data set can be described thus: biochemical. Particulars: compound at 10 μM, 15-min pre-incubation, relative to DMSO control, mean ± SE; for % inhibition of SARS-CoV-2 M^pro activity: 10 µM.
The target in data set [8] is T2, human cathepsin L (hCatL). On the set-up: method as in PMID 37435731. The following applies: E-64 data reported previously; cited from earlier work.
For a further data set, the system named is Vero cells. On the set-up: method as in PMID 38194508. Particulars: ribavirin data reported previously; cited from earlier work.
Another data set deals with L929 cells. On the set-up: method as in PMID 39072124. The following applies: ribavirin data reported previously; cited from earlier work.
[9] abbreviates: 15-min pre-incubation before substrate, value per independent assay (Figure 3, black), read-out: IC50 SARS-CoV-2 M^pro, 15-min pre-incubation.
[10] abbreviates: 30-min pre-incubation before substrate, value per independent assay (Figure 3, violet), read-out: IC50 SARS-CoV-2 M^pro, 30-min pre-incubation.
The mark [11] stands for this setting: no pre-incubation before substrate, value per independent assay (Figure 3, teal), read-out: IC50 SARS-CoV-2 M^pro, 0-min pre-incubation.

“And” between values parts separate entries of the source, which are not always exact repeats. Identical values can stand only once. Like-named read-outs stand apart in the source and are kept apart here.

The values that follow come from publication PMC12624906, “Discovery of benzyl carbamate inhibitors of coronavirus M^pro enzymes from a legacy collection of cysteine protease inhibitors” (Journal of Enzyme Inhibition and Medicinal Chemistry, 2025).

T2 sequence (P07711 114-333): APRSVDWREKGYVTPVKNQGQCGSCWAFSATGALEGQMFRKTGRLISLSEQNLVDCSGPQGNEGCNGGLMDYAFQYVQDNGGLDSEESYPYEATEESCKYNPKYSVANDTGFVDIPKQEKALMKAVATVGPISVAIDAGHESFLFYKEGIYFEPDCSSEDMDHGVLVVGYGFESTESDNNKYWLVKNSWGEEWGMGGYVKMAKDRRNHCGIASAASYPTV

Regarding `COC(=O)/C=C/C(=O)[C@@H](C)NC(=O)[C@H](Cc1ccccc1)NC(=O)OCc1ccccc1` [Compound 1a], the IC50 (in general, the concentration at which inhibition is half-maximal) against SARS-CoV-2 M^pro [1] is 415 ± 18 nM; against SARS-CoV M^pro it was 699 ± 12.5 nM; at SARS-CoV-2 M^pro [5] (setting [9]) it was 433 nM and 397 nM; on SARS-CoV-2 M^pro [5] (setting [10]) it was 249 nM and 301 nM; at SARS-CoV-2 M^pro [5] (setting [11]) it was 1020 nM and 1160 nM; in data set [6], 319 ± 1 nM. For the same compound, the IC50 against MERS-CoV M^pro is 3790 ± 640 nM. Besides, the values for the CC50 at 48 h in “in vitro [2]” and in the data set “in vitro [4]” were 17200 ± 500 nM and 73500 ± 4340 nM, respectively. In addition, at SARS-CoV-2 M^pro [3], the “inhibition after rapid dilution (reversibility)” value (“inhibition after rapid dilution” below) is “reversible inhibition”. Besides, the inhibition (usually how much of the control response was suppressed) at 10 µM against SARS-CoV-2 PL^pro is 0%; at SARS-CoV-2 M^pro [7], more than 95%. At SARS-CoV-2 M^pro [5], the “fold decrease in IC50 with 15-min pre-incubation vs without” value (shortened to “fold decrease in IC50 … vs without”) is listed as approximately 2 fold. Moreover, the “% inhibition of SARS-CoV-2 M^pro activity” value at SARS-CoV-2 M^pro [7] came to 96.75 ± 1.04%.

As to `O=C(NC(CCc1ccccc1)C(O)c1cc1=O)C(Cc1ccccc1)NC(=O)N1CCOCC1` (centres unmarked) [Compound 2a], the IC50 is 8120 ± 40 nM on SARS-CoV-2 M^pro [1], more than 10000 nM against SARS-CoV M^pro, 184 ± 3 nM in data set [6] and more than 10000 nM against MERS-CoV M^pro. Also, the inhibition at 10 µM was 5.2 ± 1.23% at SARS-CoV-2 PL^pro and 54 ± 1.34% against SARS-CoV-2 M^pro [7].

As for `CCOC(=O)C1CCN(C(=O)N[C@@H](CC(C)C)C(=O)N[C@@H](/C=C/S(=O)(=O)c2ccccc2)COc2ccccc2)CC1` [Compound 3a], the IC50 against SARS-CoV-2 M^pro [1] was 16420 ± 90 nM; on SARS-CoV M^pro it was more than 10000 nM; in [6], 763 ± 79 nM; at MERS-CoV M^pro, more than 10000 nM. In addition, the inhibition at 10 µM against SARS-CoV-2 PL^pro was 1.84 ± 2.85%; at SARS-CoV-2 M^pro [7] it was 51.5 ± 1.38%.

As for `O=C(N[C@H](CCc1ccccc1)C(=O)CS(=O)(=O)c1ccccc1)[C@H](Cc1ccccc1)NC(=O)N1CCOCC1` [Compound 4a], the IC50 is 8720 ± 540 nM on SARS-CoV-2 M^pro [1], more than 10000 nM at SARS-CoV M^pro, 10700 ± 240 nM in [6] and more than 10000 nM against MERS-CoV M^pro. Moreover, the inhibition at 10 µM stood at 1.56 ± 4.68% at SARS-CoV-2 PL^pro and 52.5 ± 3.61% on SARS-CoV-2 M^pro [7].

As to `C=CC(=O)[C@@H](C)NC(=O)[C@@H](Cc1ccccc1)NC(=O)OCc1ccccc1` [Compound 5a], the IC50 is 160 ± 5.8 nM on SARS-CoV-2 M^pro [1]; 110 ± 17.3 nM at SARS-CoV M^pro; 154 nM and 166 nM at SARS-CoV-2 M^pro [5] (setting [9]); 103 nM and 115 nM on SARS-CoV-2 M^pro [5] (setting [10]); 757 nM and 708 nM on SARS-CoV-2 M^pro [5] (setting [11]); more than 10000 nM in data set [6]. Besides, on MERS-CoV M^pro, the IC50 is 830 ± 53.5 nM. Moreover, the CC50 at 48 h in “in vitro [2]” stood at 49000 ± 3280 nM; in “in vitro [4]”, 102000 ± 2060 nM. On SARS-CoV-2 M^pro [3], the “inhibition after rapid dilution” value was “reversible inhibition”. Further, the inhibition at 10 µM on SARS-CoV-2 PL^pro was 6.14 ± 2.42%; at SARS-CoV-2 M^pro [7], more than 95%. Moreover, the “fold decrease in IC50 … vs without” value at SARS-CoV-2 M^pro [5] is on record as approximately 4 fold. For the same compound, the “IC50 hCatL” value in data set [6] was “inactive”. In addition, on MERS-CoV M^pro, the “fold decrease in activity against MERS-CoV M^pro compared to SARS-related M^pro enzymes” value was approximately 5 fold. The “% inhibition of SARS-CoV-2 M^pro activity” value on SARS-CoV-2 M^pro [7] came out at 100.00 ± 0.00%.

As to `C=CC(=O)[C@H](C)NC(=O)[C@@H](Cc1ccccc1)NC(=O)OCc1ccccc1` [Compound 5b], the “fold less potent than nirmatrelvir, SARS-CoV-2 M^pro IC50” value at SARS-CoV-2 M^pro [1] is recorded as “approximately 7 fold”. The IC50 against SARS-CoV-2 M^pro [1] was 128 ± 6 nM; against SARS-CoV M^pro, 73 nM and 73.2 nM; on SARS-CoV-2 M^pro [5] (setting [9]) it was 134 nM and 122 nM; on SARS-CoV-2 M^pro [5] (setting [10]), 114 nM and 111 nM; at SARS-CoV-2 M^pro [5] (setting [11]), 639 nM and 707 nM; in data set [6], more than 10000 nM. At SARS-CoV M^pro, the “fold greater IC50 than nirmatrelvir, SARS-CoV M^pro” value worked out at 2.4 fold. The CC50 at 48 h turned out to be 37500 ± 2140 nM in “in vitro [2]” and 85900 ± 1690 nM in the data set “in vitro [4]”. For the same compound, on SARS-CoV-2 M^pro [3], the “inhibition after rapid dilution” value is recorded as “reversible inhibition”. Also, the “fold decrease in IC50 … vs without” value on SARS-CoV-2 M^pro [5] is reported as approximately 4 fold. In [6], the “IC50 hCatL” value is “inactive”. For the same compound, the inhibition at 10 µM against SARS-CoV-2 M^pro [7] worked out at 100%.

Regarding `CC(C)C[C@H](NC(=O)[C@H]1O[C@@H]1C(=O)O)C(=O)NCCCCN=C(N)N` [Compound E-64], the IC50 in [8] is 8 ± 1 nM.

`NC(=O)c1ncn([C@@H]2O[C@H](CO)[C@@H](O)[C@H]2O)n1` [Ribavirin, ribavirin]: the CC50 in the data set with Vero cells and in the data set with L929 cells was more than 100000 nM throughout.
